Consider 6 molecules from paper PMC12455078, “Synthesis, pharmacokinetic studies, and metabolite analysis of meridianin C in rats using a validated ultra high performance liquid chromatography-tandem mass spectrometry method” (Frontiers in Pharmacology, 2025).

A short description of data set [1]: Pharmacokinetics of MC and its metabolites in rat plasma after a single oral dose of MC (UHPLC-MS/MS). The data set is classed as in vivo, Sprague Dawley rats. Particulars: for Tmax / half-life / Cmax / AUC(0-t): male, Sprague Dawley, single oral (intragastric) 100 mg/kg MC; for Tmax / half-life: n = 6; for Cmax: n = 6, metabolites quantified with the MC calibration curve; for AUC(0-t): n = 6, non-compartmental, metabolites quantified with the MC calibration curve, read-out: AUC0–48h; for AUC0–48h fold less than that of MC / Concentration in plasma samples relative to limit of quantification: single oral 100 mg/kg MC. How it is done:
Sprague Dawley rats (male, 220–250 g) were purchased from the SPF Biotechnology Co., Ltd. (Beijing, China). Animals were acclimated under controlled conditions (temperature 22 °C ± 2 °C, humidity 50%–60%, 12 h light cycle) with unlimited fodder and water access for 7 days. The animal experiments were approved by the Animal Experiment Ethics Review Committee of Jiangsu Vocational College of Medicine, Yancheng, China (LLSQ-2021-031106).
After fasting overnight, six rats were orally administered 100 mg/kg MC suspended in 0.5% carboxymethyl cellulose sodium solution (10.0 mg/mL). Blood samples (about 300 μL) were collected into heparinized polythene tubes from the suborbital vein at 0, 0.25, 0.5, 1, 2, 3, 4, 8, 12, 24, 36 and 48 h after administration. All samples were immediately centrifuged at 6,125 g for 5 min at 4 °C to acquire plasma. The plasma samples were preserved at − 80 °C until further analysis.
For the measurement of the concentrations of MC and its metabolites, three times volume of methanol, containing 20 µL IS (puerarin, 2,160.0 ng/mL), were added to 100 µL plasma samples to precipitate protein. After vortexing for 2 min, the mixtures were centrifuged at 6,125 g for 10 min at 4 °C. The obtained supernatants were transferred to fresh tubes and allowed to be dried at room temperature by a nitrogen blowing instrument. Then, the remaining residues were re-dissolved with 100 µL methanol–water (80:20, v/v). Following centrifugation at 16,173 g for 10 min, the supernatants were transferred and used for UHPLC/[…] assessment. The injection volume of each sample was 1 μL.
The UHPLC-MS system comprised of an Acquity UPLC system (Waters, Milford, United States) and Waters TQD tandem mass spectrometer equipped with an electrospray ionization (ESI) source. A Waters ACQUITY BEH C18 column (100 × 2.1 mm, 1.7 μm, Waters, Milford, United States) was used for the chromatography separation. The column temperature was set to 40 °C. The mobile phase was composed of 0.1% formic acid in water (A) and 0.1% formic acid in acetonitrile (B) with a fixed flow rate at 0.4 mL/min. A gradient elution program was used as follows: 0–1.5 min, 5%–20% B; 1.5–5 min, 20%–30% B; 5–7 min, 30%–95% B; 7–9 min, 95% B; 9–11 min, 95% B.
The MS tune parameters were set as mentioned below. The desolvation of the source temperatures was set at 500 °C. The flow rate of nebulization gas was 650 L/h. The capillary voltage was set at 2.8 kV in the positive ionization mode. The cone voltages were maintained at 35 V for all the tested ingredients. All data were obtained via the multiple reaction monitoring (MRM) ion mode. The range of m/z for the data collection was set at 100–1,500 Da. Transitions, cone voltage and a collision energy of MC and its metabolites were optimized (Table 2). The mass spectrum of MC and the chemical structures of its MS/MS fragments is shown in Figure 4, and The mass spectrum of puerarin and the chemical structures of its MS/MS fragments is shown in Figure 5. MassLynx™ software version 4.1 was used for data acquisition and TargetLynx™ (Waters, Milford, MA, United States) was applied to quantitation.
The concentrations of MC in the collected plasma samples were quantified by the established calibration curve based on peak areas of corresponding components. Owing to the lack of corresponding standards, calibration curves for the metabolites were not established. It has been reported that the concentrations of the metabolites could be quantified according to calibration curve of parent drug. This is possible due to the structural similarity of their parent nucleus ([Zhang et al., 2015]). Therefore, in this study, the concentrations of the metabolites were calculated via the calibration curve of MC. The main pharmacokinetic parameters of MC and its metabolites were calculated via a non-compartmental model with the pharmacokinetic software, DAS (ver. 2.0, Chinese Pharmacology Association, Shanghai, China). […]

Data set [2] is described as follows: Stability of MC in rat plasma QC samples under storage conditions. The data set is classed as in vitro ADME. Particulars: for Stability (re, %) 20 °C–25 °C/24 h / Stability (re, %) −20 °C/30 days / Stability (re, %) Freeze-thaw (3 cycles): n = 3; for Stability (re, %) Freeze-thaw (3 cycles): −20 °C to ambient temperature. How it is done: MC, accurately weighted, was firstly dissolved in methanol to acquire the standard stock solutions (250 μg/mL). A set of standard working solutions (25,000.0 ng/mL, 12,500.0 ng/mL, 2,500.0 ng/mL, 1,250.0 ng/mL, 625.0 ng/mL, 250.0 ng/mL, 125.0 ng/mL, 31.25 ng/mL) were obtained by diluting the stock solutions with methanol. An aliquot of 20 µL of these standard working solutions was then spiked into 1.5 mL polythene tubes and the solvent of methanol was evaporated at room temperature. Afterwards, the calibration standards (5,000.0 ng/mL, 2,500.0 ng/mL, 500.0 ng/mL, 250.0 ng/mL, 125.0 ng/mL, 50.0 ng/mL, 25.0 ng/mL, 6.25 ng/mL) were obtained by adding blank plasma (100 µL) into the tubes and fully mixing. The preparation method of quality control samples (QCs, 25.0 ng/mL, 1,250.0 ng/mL, 4,000.0 ng/mL) was identical with that of the calibration standards. All solutions were stored at 4 °C until further use.
All method validation procedures were performed strictly in accordance with the US FDA Guidance for Industry on Bioanalytical Method Validation ([FDA, 2018]). The assessment of selectivity was performed via comparing chromatograms among blank rat plasma (six different batches) and rat plasma spiked with MC and IS. The evaluation of linearity was carried out using weighted (1/x^2) least-squares analysis of two sets of calibration standards. Three different concentrations of Quality Check: QCs (n = 6) standards were used and detected on three different days to evaluate the intra-day and inter-day precision and the accuracy. Similarly, matrix effect and extraction recovery were assessed using three different concentrations of QCs (n = 6). The matrix effect was evaluated via calculating the peak area ratio of MC in post-spiked QCs and the solvent-substituted samples with same concentration. The extraction recovery was assessed via calculating the peak area ratio of MC in pre-spiked and post-spiked QCs. The stability of MC was examined using three concentrations of QCs (n = 3) under three different storage conditions, including freeze-thaw stability (three cycles from −20 °C to ambient temperature), short-term stability (storage at 20 °C–25 °C for 24 h), and long-term stability (storage at −20 °C for 30 days).
The stability was estimated by analyzing QCs (25.0, 1,250.0, and 4,000.0 ng/mL) after storing in three different conditions: three freeze-thaw cycles (−20 °C to ambient temperature), 20 °C–25 for 24 h, and - 20 °C for 30 days. As presented in Table 5, the deviations in the stabilities of MC ranged from - 8.5% to 13.5% under the three different storage conditions.

Details of data set [3]: method as in Hasa et al., 2013. Particulars: ref Hasa et al., 2013; cited from earlier work.

Broadly, the Tmax is the time at which the peak concentration occurs. By half-life is commonly meant the time in which the quantity being followed falls by half. As a reminder, the Cmax is the peak of the concentration-time curve. Consider `Nc1nccc(-c2cn(OS(=O)(=O)O)c3ccc(Br)cc23)n1` [M2], for which, in data set [1], the Tmax was 0.5 ± 0.27 h, the half-life was 4.4 ± 2.7 h, the highest concentration (Cmax) is 6.4 ± 2 µM and the AUC(0-t) was 20.9 ± 8.5 µM·h. The “AUC0–48h fold less than that of MC” value in data set [1] is given as 11.1 fold.

Regarding `Nc1nccc(-c2cn(O)c3ccc(Br)cc23)n1` [M3], in data set [1], the “Concentration in plasma samples relative to limit of quantification” value was “lower than the limit of quantification”.

Consider `ONc1nccc(-c2cn(O)c3ccc(Br)cc23)n1` [M8], for which the “Concentration in plasma samples relative to limit of quantification” value in data set [1] is “lower than the limit of quantification”.

As to `O=S(=O)(O)ONc1nccc(-c2c[nH]c3ccc(Br)cc23)n1` [M11], in data set [1], the time of peak concentration (Tmax) amounted to 0.88 ± 0.63 h, the half-life was 3.4 ± 2.2 h, the Cmax came to 1.6 ± 0.6 µM and the AUC(0-t) was 4 ± 1.1 µM·h. In addition, in data set [1], the “AUC0–48h fold less than that of MC” value is given as 58.7 fold.

For `Nc1nccc(-c2c[nH]c3ccc(Br)cc23)n1` [MC, Meridianin C], in data set [1], the Tmax was determined as 0.75 ± 0.27 h, the half-life is 17.7 ± 14.1 h, the Cmax came out at 44.8 ± 7 µM and the AUC(0-t) is 232 ± 85.9 µM·h. In addition, in data set [2] (rat plasma, 25.0 ng/mL), the “Stability (re, %) 20 °C–25 °C/24 h” value was found to be 12.5%; the “Stability (re, %) −20 °C/30 days” value is given as 10.6%; the “Stability (re, %) Freeze-thaw (3 cycles)” value amounted to 13.5%. For the same molecule, in data set [2] (rat plasma, 1,250.0 ng/mL), the “Stability (re, %) 20 °C–25 °C/24 h” value amounted to 7.9%; the “Stability (re, %) −20 °C/30 days” value came out at 5.2%; the “Stability (re, %) Freeze-thaw (3 cycles)” value is recorded as 12.6%. In data set [2] (rat plasma, 4,000.0 ng/mL), the “Stability (re, %) 20 °C–25 °C/24 h” value is −6.8%; the “Stability (re, %) −20 °C/30 days” value is −8.5%; the “Stability (re, %) Freeze-thaw (3 cycles)” value is given as 9.3%. Besides, in data set [2] (three freeze-thaw cycles, 20 °C–25 °C for 24 h, −20 °C for 30 days), the “Stability in rat plasma (in words)” value is listed as “stable”.

On to `CC[C@]12CCCN3CCc4c(n(c5ccccc45)[C@@](O)(C(=O)OC)C1)[C@@H]32` [vincamine], for which the Bioavailability entry in data set [3] was “low bioavailability”.
